# Patent publication US20200046774A1, “COMPOSITION FOR PREVENTING OR TREATING BONE DISEASES WHICH HAS EXCELLENT BONE REGENERATION EFFECT” (KOREA UNIVERSITY RESEARCH AND BUSINESS FOUNDATION, priority 2017, published 2020)
# Tests used:
# [1] = system: HGPRT knockout cell line of Example 14; details: after 9 days of 6-TG treatment, in comparison to the TDF cell line of Example 3; FIG. 20
# [2] = system: TDF cell line of Example 3; test: Evaluation of apoptosis by gancyclovir treatment (HSV-tk kill switch); format: cell-based; details: 0, 50 and 500 μg/ml, 72 hours to 124 hours; depending on concentration and time; FIGS. 12 and 13
# Experimental: TDF cell line of Example 3, a cell line of Example 3 was treated with gancyclovir in concentrations of 0 μg/ml, 50 μg/ml and 500 μg/ml, respectively, and the number of cells was observed and analyzed for a period of 72 hours to 124 hours, as shown in FIGS. 12 and 13.
# [3] = system: alkaline phosphatase (ALP); test: ALP activity (early osteogenic induction ability), OIM or GM culture; details: 1 ng/ml, 2 ng/ml and 5 ng/ml of BMP-2, 7 days after induction of osteogenesis, versus control not treated with BMP-2; FIG. 4
# Experimental: After 3 days and 7 days of the culturing, samples were washed twice with a PBS solution, and dissolved in a cell lysis buffer to which 0.1% Triton X-10 was added.
# Lysed cells were centrifuged at 4° C. and 13000 rpm for 30 minutes, and then a supernatant was recovered and quantitated by a Bradford assay. The ALP activity was measured at 405 nm for the same amount of proteins using an ALP kit (AnaSpec), and the results are shown in FIG. 3.
compound,measurement,setting,value
"Nc1nc2[nH]cnc2c(=S)[nH]1 [Example 6-TG, 6-tioguanine]",cell survival under 6-TG treatment,[1],more cells survived
Nc1nc(O)c2ncn(COC(CO)CO)c2n1 [ganciclovir],cell growth / number of cells under gancyclovir,[2],cell growth is inhibited
BMP-2,ALP activity of normal TDF cell line with BMP-2 injected from the outside,[3],statistically significant ALP activity was not observed
